Measured values from US20250332212A1, “METHOD FOR TREATING OR PREVENTING ALOPECIA” (Suzhou Mingren Pharmaceutical Biotechnology Co., Ltd., priority 2024, published 2025).
Square brackets hold non-standard residues; d marks the D form. Ends that are not written are not given here. pS = N[C@@H](COP(=O)(O)O)C(=O)O

Tests used:
[1] = JP1 stability experiment in skin-coating solvent (HPLC); format: physicochemical; details: 14 days
Method: This example further explored the stability of JP1 in the skin-coating solvent. In this example, the solvent group and JP1 group were designed, and the content and molecular weight of JP1 in the skin-coating solvent were detected using high performance liquid chromatography on days 1, 3, 7, and 14, respectively, after the solution was formulated for evaluation. The prepared solutions were placed in a refrigerator at 4° C. The details of the experiments are shown in “II. JP1 Stability Experiments” of “Experimental Methods” below.
The stability of JP1 dissolved in a skin-coating solvent was tested at different time points. JP1 was prepared with the skin-coating solvent, and a solvent control group and a 10 mM JP1 group were set up. The prepared solution was stored in a refrigerator at 4° C. The five time points of 0, 1, 3, 7 and 14 days were detected by high performance liquid chromatography (HPLC), and the standard curve was plotted with the peak area as the vertical coordinate and the concentration of JP1 as the horizontal coordinate.

SP1 = SP1 expression in skin tissue (qPCR, immunoblotting, immunofluorescence); format: in vivo, mouse
Method: (§1) 4.1) Protein extraction: 70 mg of skin tissue was placed in a 1.5 mL centrifuge tube, and 500 μL of tissue lysate RIPA containing protease inhibitor and phosphatase inhibitor was added. The tissue was placed on an ice box, pulverized by a tissue grinder, and then ultrasonically crushed to obtain a tissue suspension, which was then placed in a rotary windmill at 4° C. to be lysed for 2 h. The centrifuge was set at 12,000×g, 4° C., centrifuged for 15 min, and the supernatant was collected as the total protein.
(§2) 5.1) Heating of protein samples: the total protein content of each tissue was 50 μg; calculate the volume of a corresponding protein sample, make up the volume with saline to 16 μL, then add 4 μL of 5×SDS sampling buffer, heat at 100° C. for 5 min, and then cool at room temperature and store at −20° C.
(§3) 7.1) Dilute the specific gene amplification primers to 10 µM in ddH2O, prepare the qPCR reaction system according to the instructions in the kit and add them sequentially into a 384-well plate.
(§4) 7.3) Relative mRNA expression levels of genes were calculated by the […] relative quantification method using GAPDH as an internal reference.
9.5) Primary antibody incubation: the tissue was circled by the histochemical pen, about 50 μL of primary antibody was added dropwise to the tissue, and incubated in a wet box overnight at 4° C., washed 3 times with PBS.

AR, FOXD3, and FOXI1 = assay: qPCR of other predicted SP1 transcription factors in skin tissue; format: in vivo, mouse; details: P>0.05
Method: Four transcription factors that can bind to the SP1 promoter region were obtained by taking the intersection of the predicted data: E2F1, AR, FOXD3, and FOXI1 (FIG. 13A).
as §3, §4

Wnt10b = Wnt10b expression in skin tissue (qPCR, Western blotting); format: in vivo, mouse
Method: To illustrate the regulation of JP1 on the upstream Wnt ligand of β-catenin, this example intersected classical signaling pathway-related Wnt ligands and AGA-related Wnt ligands, and screened out the related Wnt ligands, including Wnt1, Wnt3a, Wnt7b, Wnt10a, and Wnt10b. In this example, qPCR was used to detect the mRNA expression of these Wnt molecules in the skin tissue of the mouse model in Example 6.
as §1
as §2, with “−20° C. […]” for “−20° C.”
as §4

MYC = assay: qPCR of MYC mRNA in skin tissue; format: in vivo, mouse; details: P>0.05
Method: as §3, §4

[2] = system: SP1, Wnt10a, Wnt10b and β-catenin; assay: Immunoblotting of SP1 and downstream molecules in skin, Animal model III; format: in vivo, mouse; details: 1% JP1
Method: as §1, §2
(§5) 5.7) Primary antibody incubation: the cut protein bands were placed into the corresponding primary antibody and incubated at 4° C. on a shaker overnight, washed with TBST 3 times for 10 min/time.

Lef1 = assay: qPCR of Lef1 mRNA in skin tissue; format: in vivo, mouse
Method: (§6) 6.1) Sample preparation: 15-20 mg of mouse skin tissue was placed in a 1.5 mL centrifuge tube, and 600 μL of pre-cooled lysate was quickly added, and homogenized with an electric homogenizer. The homogenate obtained was blown gently 10 times, left at room temperature for 3-5 min, then centrifuged at 14,000×g for 5 min, and the supernatant was transferred to a new centrifuge tube with a pipette gun of suitable volume.
as §3, §4

p-MEK = assay: Immunoblotting of p-MEK in skin tissue; format: in vivo, mouse; details: P<0.05, dose-effect relationship
Method: as §1, §2, §5

p-ERK = assay: Immunoblotting of p-ERK in skin tissue; format: in vivo, mouse; details: P<0.05, dose-effect relationship
Method: as §1, §2, §5

AR = assay: qPCR of AR mRNA in skin tissue of model mice; format: in vivo, mouse; details: model II, P>0.05
Method: as §6
6.10) Reverse transcribe the RNA into cDNA according to the instructions of the reverse transcription kit, and then carry out subsequent experiments or store at −20° C. for later use.
as §3, §4

Substance: FPGSDRF-RGD (FPG[pS]DRFRGD) [JP1, amino acid S is phosphorylated; JWA peptide]
- JP1 degradation in skin-coating solvent ([1]; 10 mM JP1, 4° C.): no JP1 degradation was detected
- peak area of the substance produced by degradation ([1]; skin-coating solvent, 4° C.): less than 0.5 mAU
- percentage of the main peak area ([1]; skin-coating solvent, 4° C.): ~100%
- SP1 immunofluorescence (SP1): consistent with the protein immunoblotting results
- SP1 protein expression level (SP1; immunoblotting): elevated trend
- SP1 mRNA expression (SP1; qPCR): high expression
- SP1 mRNA expression level, 1% JP1 group vs 0.1% JP1 group (SP1; qPCR, P<0.05): significantly higher than that in the 0.1% JP1 group
- mRNA expression of other molecules (predicted SP1 transcription factors) (AR, FOXD3, and FOXI1): did not change significantly
- Wnt10b protein expression (Wnt10b; Western blotting, dose-dependent): significantly up-regulated
- Wnt10b mRNA expression (Wnt10b; qPCR, P<0.05): elevated with a dose-effect relationship
- MYC mRNA level, difference between groups (MYC): not statistically significant
- expression levels of key molecules (SP1, Wnt10a, Wnt10b, β-catenin), day 4 [2]: did not change significantly
- protein expression levels of four molecules (SP1, Wnt10a, Wnt10b, β-catenin), day 8 [2]: increased significantly
- Lef1 mRNA expression vs model group (Lef1): increased
- p-MEK expression level (p-MEK): elevated
- p-ERK expression level (p-ERK): elevated
- AR mRNA level, difference between groups (AR): no statistically significant difference
